Reference: PubChem BioAssay AID2503 (Sanford-Burnham Center for Chemical Genomics, 2010)
Active and inactive are the calls of the source. The rule behind the calls is not given here.

Test system: MCF-7/NOD2 cells, MDP-induced IL-8 secretion
Assay: NOD2 pathway IL-8 secretion inhibitors – MCF-7/NOD2 cells, MDP stimulus, set 2, SAR follow-up (AID 2503)

| IC50 | SMILES |
| --- | --- |
| > 25 µM (inactive) | CCCCn1c(CN2CCN(c3cccc(Cl)c3)CC2)nc2c1c(=O)n(C)c(=O)n2C |
| > 25 µM (inactive) | C/C=C/Cn1c(SCCCc2ccccc2)nc2c1c(=O)[nH]c(=O)n2C |
| > 25 µM (inactive) | CCCCn1c(SCC(=O)c2ccccc2)nc2c1c(=O)[nH]c(=O)n2C |
| > 25 µM (inactive) | CCCn1c(SCC(=O)Nc2nc3c(s2)CCCC3)nc2c1c(=O)n(C)c(=O)n2C |
| > 25 µM (inactive) | Cc1ccc(S(=O)(=O)n2c(=S)[nH]c3cc(C)ccc32)cc1 |
| > 25 µM (inactive) | C/C(Cl)=C\Cn1c(NCCc2ccccc2)nc2c1c(=O)n(C)c(=O)n2C |
| > 25 µM (inactive) | C=CCn1c(SCCCc2ccccc2)nc2c1c(=O)[nH]c(=O)n2C |
| > 25 µM (inactive) | CC(C)n1c(SCCCc2ccccc2)nc2c1c(=O)[nH]c(=O)n2C |
| > 25 µM (inactive) | COc1ccc(C(=O)Cn2c(N)nc3ccccc32)cc1 |
| > 25 µM (inactive) | CC(C)Sc1nc2c(c(=O)[nH]c(=O)n2C)n1Cc1ccccc1 |
| > 25 µM (inactive) | Oc1ccc(N=Nc2ccccc2C(F)(F)F)c2cccnc12 |
| > 25 µM (inactive) | CCCCCn1c(SCCc2ccccc2)nc2c1c(=O)[nH]c(=O)n2C |
| 17.3 µM | Cc1ccc(S(=O)(=O)n2c(N)nc3ccccc32)cc1 |
| > 25 µM (inactive) | C/C=C/Cn1c(SCc2ccc(Cl)cc2)nc2c1c(=O)[nH]c(=O)n2C |
| > 25 µM (inactive) | CCCCn1c(SCC(=O)Nc2nnc(CC)s2)nc2c1c(=O)n(C)c(=O)n2C |
| > 25 µM (inactive) | COCCn1c(SCCCc2ccccc2)nc2c1c(=O)[nH]c(=O)n2C |
| > 25 µM (inactive) | C/C=C/Cn1c(SCc2ccccc2)nc2c1c(=O)[nH]c(=O)n2C |
| 1.31 µM | Cn1c(=O)[nH]c(=O)c2c1nc([N+](=O)[O-])n2Cc1ccccc1 |
| 13.2 µM | CCC(=O)Nc1nc2ccccc2n1Cc1ccc(Cl)cc1 |
| > 25 µM (inactive) | O=C(Nc1nc2ccccc2n1Cc1ccc(Cl)cc1)c1ccco1 |
| 4.59 µM | Nc1nc2ccccc2n1Cc1ccc(Cl)cc1 |
| > 25 µM (inactive) | Nc1nc2ccccc2n1CCOc1ccc(Cl)cc1 |
| > 25 µM (inactive) | CCCn1c(SCCc2ccccc2)nc2c1c(=O)[nH]c(=O)n2C |
